Paper PMC2222763 (The Journal of General Physiology, 1998)
Where “and” joins values, the source holds several entries; their conditions need not be identical. Identical values can stand only once. Like-named read-outs stand apart in the source and are kept apart here.

What was measured:
[1] = test system: large-conductance Ca^2+-activated K^+ channels (BK channels); experiment: Slow blockade: long shut events and burst durations in single BK channels; format: biochemical, goldfish, Carassius auratus
[2] = test system: large-conductance Ca^2+-activated K^+ channels (BK channels); experiment: Steady state activation of BK channels; format: biochemical, goldfish, Carassius auratus; details: for Po: 20 μM [Sr^2+]i or 5 μM [Ca^2+]i (equipotent); for decrease in V0.5 produced by a 10-fold increase in concentration: slopes of concentration–V0.5 plots
[3] = test system: large-conductance Ca^2+-activated K^+ channels (BK channels); format: biochemical, goldfish, Carassius auratus
[4] = test system: large-conductance Ca^2+-activated K^+ channels (BK channels); format: biochemical, goldfish, Carassius auratus; details: voltage steps −50 to +50 mV; 20 μM Sr^2+ or 5 μM Ca^2+
BK channels [5] = details: cultured neurons from rat hypothalamus and brain stem; ref Kang et al., 1994; cited from earlier work
BK channels [6] = details: T-tubule membrane in lipid bilayers; ref Oberhauser et al., 1988; cited from earlier work
BK channels [7] = details: cited from earlier work

SMILES: [Sr+2] [Sr^2+, Strontium]
- duration of long shut events (slow blockade) [1]: 10 to 200 ms
- probability for the open state during bursts (P[open|burst]) ([1]; 500 μM [Sr^2+]i at 30 mV): 0.86
- time constant of burst durations (τb) ([1]; 0.5 mM [Sr^2+]i, 30 mV): 1,310 ms
- time constant of long shut events (τl−s) ([1]; 0.5 mM [Sr^2+]i, 30 mV): 75.1 ms
- time constant of burst durations (τb) ([1]; 0.5 mM [Sr^2+]i, 50 mV): 631 ms
- time constant of long shut events (τl−s) ([1]; 0.5 mM [Sr^2+]i, 50 mV): 44.7 ms
- time constant of burst durations (τb) ([1]; 2 mM [Sr^2+]i, 30 mV): 520 ms
- time constant of long shut events (τl−s) ([1]; 2 mM [Sr^2+]i, 30 mV): 41.3 ms
- time constant of burst durations (τb) ([1]; 2 mM [Sr^2+]i, 50 mV): 195 ms
- time constant of long shut events (τl−s) ([1]; 2 mM [Sr^2+]i, 50 mV): 41.0 ms
- time constant of burst durations (τb) ([1]; 10 mM Sr^2+, 50 mV, threshold time for long shut events 3.32 ms): 51.0 ms
- time constant of burst durations (τb) ([1]; 10 mM Sr^2+, 50 mV, threshold time for long shut events 15.8 ms): 94.0 ms
- probability for the open state during bursts (P[open|burst]) ([1]; 10 mM [Sr^2+]i at 50 mV): 0.94
- time constant of burst durations (τb) ([1]; 10 mM [Sr^2+]i, 30 mV): 163 ms
- time constant of long shut events (τl−s) ([1]; 10 mM [Sr^2+]i, 30 mV): 44.6 ms
- time constant of long shut events (τl−s) ([1]; 10 mM [Sr^2+]i, 50 mV): 34.4 ms
- time constant of burst durations (τb) ([1]; 10 mM [Sr^2+]i, 50 mV (threshold time for long shut events 6.64 ms)): 63.2 ms
- τb ([1]; 10 mV, square patch (Fig. 9 C)): 425 ms
- slope of log(n 1−s/n s) versus log([Sr^2+]i) ([1]; 10 mV, triangle patch): 0.95
- slope of log(τb) versus log([Sr^2+]i) ([1]; 10 mV, triangle patch): −1.23
- slope of log(τl−s) versus log([Sr^2+]i) ([1]; 10 mV, triangle patch): −0.15
- slope of log(n 1−s/n s) versus log([Sr^2+]i) ([1]; 30 mV, circle patch): 0.71
- slope of log(τb) versus log([Sr^2+]i) ([1]; 30 mV, circle patch): −0.74
- slope of log(τl−s) versus log([Sr^2+]i) ([1]; 30 mV, circle patch): −0.094
- slope of log(n 1−s/n s) versus log([Sr^2+]i) ([1]; 30 mV, triangle patch): 1.08
- slope of log(τb) versus log([Sr^2+]i) ([1]; 30 mV, triangle patch): −0.78
- slope of log(τl−s) versus log([Sr^2+]i) ([1]; 30 mV, triangle patch): 0.01
- slope of log(n 1−s/n s) versus log([Sr^2+]i) ([1]; 50 mV, circle patch): 0.92
- slope of log(τb) versus log([Sr^2+]i) ([1]; 50 mV, circle patch): −0.74
- slope of log(τl−s) versus log([Sr^2+]i) ([1]; 50 mV, circle patch): −0.11
- zd for slow blockade (Woodhull equation, Eq. 7) ([1]; one value per experiment): 0.95 and 1.84
- slope of log(n 1−s/n s) versus log([Sr^2+]i) ([1]; square patch): 1.18
- slope of log(τb) versus log([Sr^2+]i) ([1]; square patch): −1.00
- slope of log(τl−s) versus log([Sr^2+]i) ([1]; square patch): −0.05
- slopes of log(τb) versus log([Sr^2+]i) fitting lines ([1]; three experiments): −0.74 to −1.23
- slopes of log(τl−s) versus log([Sr^2+]i) fitting lines ([1]; three experiments): −0.15–0.01
- half-activation voltage V0.5 (Boltzmann distribution) ([2]; 5 μM [Sr^2+]i): 72 mV
- n (equivalent number of gating charges, Boltzmann distribution) ([2]; 5 μM [Sr^2+]i): 1.6
- half-activation voltage V0.5 (Boltzmann distribution) ([2]; 20 μM [Sr^2+]i): 39 mV
- n (equivalent number of gating charges, Boltzmann distribution) ([2]; 20 μM [Sr^2+]i): 1.4
- half-activation voltage V0.5 (Boltzmann distribution) ([2]; 200 μM [Sr^2+]i): 1 mV
- n (equivalent number of gating charges, Boltzmann distribution) ([2]; 200 μM [Sr^2+]i): 1.3
- half-activation voltage V0.5 (Boltzmann distribution) ([2]; 1,000 μM [Sr^2+]i): −22 mV
- n (equivalent number of gating charges, Boltzmann distribution) ([2]; 1,000 μM [Sr^2+]i): 1.3
- Hill coefficient for activation (slope of Hill plot) ([2]; 2nd of +50 to −50 mV series (40 mV)): 1.3
- Hill coefficient for activation (slope of Hill plot) ([2]; 3rd of +50 to −50 mV series (30 mV)): 1.2
- Hill coefficient for activation (slope of Hill plot) ([2]; 4th of +50 to −50 mV series (20 mV)): 1.0
- Hill coefficient for activation (slope of Hill plot) ([2]; 5th of +50 to −50 mV series (10 mV)): 0.83
- Hill coefficient for activation (slope of Hill plot) ([2]; 6th of +50 to −50 mV series (−10 mV)): 0.69
- Hill coefficient for activation (slope of Hill plot) ([2]; 7th of +50 to −50 mV series (−20 mV)): 0.70
- Hill coefficient for activation (slope of Hill plot) ([2]; 8th of +50 to −50 mV series (−30 mV)): 0.79
- Hill coefficient for activation (slope of Hill plot) ([2]; 9th of +50 to −50 mV series (−40 mV)): 0.78
- Hill coefficient for activation (slope of Hill plot) ([2]; 10th of +50 to −50 mV series (−50 mV)): 0.72
- Hill coefficient for activation (slope of Hill plot) ([2]; 50 mV): 1.6
- Po ([2]; 50 mV): 0.309
- Hill coefficient for activation ([2]; between −10 and −50 mV): ~0.7
- potency in activating BK channels relative to Ca^2+ ([2]; from concentration–V0.5 plots, eight membrane patches): approximately one-fourth
- decrease in V0.5 produced by a 10-fold increase in concentration ([2]; eight membrane patches): ~25 mV
- single-channel current amplitude ([3]; 0.1 mM [Sr^2+]i, 50 mV): 12.3 pA
- single-channel current amplitude ([3]; 0.1 mM [Sr^2+]i, 100 mV): 23.7 pA
- single-channel current amplitude ([3]; 1.0 mM [Sr^2+]i, 50 mV): 10.9 pA
- single-channel current amplitude ([3]; 1.0 mM [Sr^2+]i, 100 mV): 19.7 pA
- single-channel current amplitude ([3]; 10 mM [Sr^2+]i, 50 mV): 8.0 pA
- single-channel current amplitude ([3]; 10 mM [Sr^2+]i, 100 mV): 9.8 pA
- Hill coefficient for amplitude reduction (slope of Hill plot) ([3]; 1st of 100–30 mV series (100 mV)): 0.75
- Hill coefficient for amplitude reduction (slope of Hill plot) ([3]; 2nd of 100–30 mV series (90 mV)): 0.73
- Hill coefficient for amplitude reduction (slope of Hill plot) ([3]; 3rd of 100–30 mV series (80 mV)): 0.75
- Hill coefficient for amplitude reduction (slope of Hill plot) ([3]; 4th of 100–30 mV series (70 mV)): 0.70
- Hill coefficient for amplitude reduction (slope of Hill plot) ([3]; 5th of 100–30 mV series (60 mV)): 0.66
- Hill coefficient for amplitude reduction (slope of Hill plot) ([3]; 6th of 100–30 mV series (50 mV)): 0.62
- Hill coefficient for amplitude reduction (slope of Hill plot) ([3]; 7th of 100–30 mV series (40 mV)): 0.67
- Hill coefficient for amplitude reduction (slope of Hill plot) ([3]; 8th of 100–30 mV series (30 mV)): 0.64
- Hill coefficients for amplitude reduction ([3]; all voltages (30–100 mV), [Sr^2+]i 0.5 mM or higher): 0.62–0.75
- internal concentration producing fast and slow blockade ([3]; concentration and voltage dependent): > 100 µM
- permeation of the channel ([3]; no shift in the reversal voltage in the current–voltage relation): could scarcely permeate the channel
- activation time constant [4]: 1.22 ms
- deactivation time constant [4]: 0.61 ms

SMILES: [Ca+2].[Cl-].[Cl-] [Ca^2+]
- potency in reducing the outward current amplitude relative to internal Mg^2+ (BK channels [5]): ~1,000 ×
- potency of fast blockade relative to Mg^2+ or Sr^2+ (BK channels [6]): > 10 ×
- Hill coefficient for activation (slope of Hill plot) ([2]; 50 mV): 2.7
- Po ([2]; 50 mV): 0.315
- decrease in V0.5 produced by a 10-fold increase in concentration ([2]; eight membrane patches): ~35 mV
- single-channel current amplitude ([3]; 5 μM [Ca^2+]i, 50 mV (original amplitude)): 13.2 pA
- single-channel current amplitude ([3]; 5 μM [Ca^2+]i, 100 mV (original amplitude)): 26.1 pA
- activation time constant [4]: 1.14 ms
- deactivation time constant [4]: 0.54 ms

SMILES: [Ba+2] [Ba^2+, barium ion]
- time constant of long shut events, second exponential ([1]; 20 μM [Ba^2+]i, 100 μM [Ca^2+]i, 50 mV, area 162 events): 359 ms
- time constant of long shut events, first exponential ([1]; 20 μM [Ba^2+]i, 100 μM [Ca^2+]i, 50 mV, area 372 events): 18.8 ms
- depth of the binding site within the membrane voltage field (Ba^2+ blockade) (BK channels [7]; ref Benham et al., 1985): 0.96
- depth of the binding site within the membrane voltage field (Ba^2+ blockade) (BK channels [7]; ref Diaz et al., 1996): 0.92
- depth of the binding site within the membrane voltage field (Ba^2+ blockade) (BK channels [7]; ref Neyton and Miller, 1988): 0.5–0.7
- depth of the binding site within the membrane voltage field (Ba^2+ blockade) (BK channels [7]; ref Vergara and Latorre, 1983): 0.8
